Data as given in ChEMBL document CHEMBL4819062, “Novel iodinated quinazolinones bearing sulfonamide as new scaffold targeting radiation induced oxidative stress” (Bioorg Med Chem Lett, 2021).

How the values were obtained:
[1] = target: T1, Nuclear factor erythroid 2-related factor 2 (Mus musculus) (UniProt Q60795); assay: Activation of Nrf2 in mouse Hepa1c1c7 cells assessed as increase in NQO1 activity at 5 uM; type: cell-based; conditions: filed as activator
T1 sequence (whole entry): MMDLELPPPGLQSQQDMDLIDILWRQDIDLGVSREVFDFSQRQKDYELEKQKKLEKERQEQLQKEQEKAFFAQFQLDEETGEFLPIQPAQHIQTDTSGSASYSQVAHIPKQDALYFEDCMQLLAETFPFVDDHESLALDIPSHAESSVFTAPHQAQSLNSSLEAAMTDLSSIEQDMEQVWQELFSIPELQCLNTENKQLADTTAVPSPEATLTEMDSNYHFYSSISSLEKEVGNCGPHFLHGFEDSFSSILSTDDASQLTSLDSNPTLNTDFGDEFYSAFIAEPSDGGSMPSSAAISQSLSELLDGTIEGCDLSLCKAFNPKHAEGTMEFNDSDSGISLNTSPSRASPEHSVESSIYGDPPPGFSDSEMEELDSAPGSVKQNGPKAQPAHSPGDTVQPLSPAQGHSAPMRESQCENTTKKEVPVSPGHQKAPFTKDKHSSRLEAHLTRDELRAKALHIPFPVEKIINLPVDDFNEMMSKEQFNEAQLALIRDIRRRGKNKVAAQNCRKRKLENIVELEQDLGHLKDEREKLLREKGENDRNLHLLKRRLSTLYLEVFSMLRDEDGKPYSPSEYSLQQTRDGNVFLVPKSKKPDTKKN

[2] = target: T1, Nuclear factor erythroid 2-related factor 2 (Mus musculus); assay: Activation of Nrf2 in mouse Hepa1c1c7 cells assessed as increase in NQO1 activity at 10 uM; type: cell-based; conditions: filed as activator
[3] = target: T1, Nuclear factor erythroid 2-related factor 2 (Mus musculus); assay: Activation of Nrf2 in mouse Hepa1c1c7 cells assessed as increase in NQO1 activity at 1.25 uM; type: cell-based; conditions: filed as activator
[4] = target: T1, Nuclear factor erythroid 2-related factor 2 (Mus musculus); assay: Activation of Nrf2 in mouse Hepa1c1c7 cells assessed as increase in NQO1 activity at 2.5 uM; type: cell-based; conditions: filed as activator
[5] = Antioxidant activity assessed as DPPH radical scavenging activity; type: functional
[6] = target: T1, Nuclear factor erythroid 2-related factor 2 (Mus musculus); assay: Activation of Nrf2 in mouse Hepa1c1c7 cells assessed as increase in NQO1 activity at 40 uM; type: cell-based; conditions: filed as activator
[7] = target: T1, Nuclear factor erythroid 2-related factor 2 (Mus musculus); assay: Activation of Nrf2 in mouse Hepa1c1c7 cells assessed as increase in NQO1 activity at 0.625 uM; type: cell-based; conditions: filed as activator
[8] = target: T1, Nuclear factor erythroid 2-related factor 2 (Mus musculus); assay: Activation of Nrf2 in mouse Hepa1c1c7 cells assessed as increase in NQO1 activity at 20 uM; type: cell-based; conditions: filed as activator
[9] = target: T1, Nuclear factor erythroid 2-related factor 2 (Mus musculus); assay: Activation of Nrf2 in mouse Hepa1c1c7 cells assessed as increase in NQO1 activity at 0.313 uM; type: cell-based; conditions: filed as activator
[10] = target: T1, Nuclear factor erythroid 2-related factor 2 (Mus musculus); assay: Activation of Nrf2 in mouse Hepa1c1c7 cells assessed as increase in NQO1 activity at 0.2 uM; type: cell-based; conditions: filed as activator
[11] = target: T1, Nuclear factor erythroid 2-related factor 2 (Mus musculus); assay: Activation of Nrf2 in mouse Hepa1c1c7 cells assessed as increase in NQO1 activity at 7.5 uM; type: cell-based; conditions: filed as activator
[12] = target: T1, Nuclear factor erythroid 2-related factor 2 (Mus musculus); assay: Activation of Nrf2 in mouse Hepa1c1c7 cells assessed as increase in NQO1 activity at 0.5 uM; type: cell-based; conditions: filed as activator
[13] = target: T1, Nuclear factor erythroid 2-related factor 2 (Mus musculus); assay: Activation of Nrf2 in mouse Hepa1c1c7 cells assessed as increase in NQO1 activity at 0.9 uM; type: cell-based; conditions: filed as activator
[14] = target: T1, Nuclear factor erythroid 2-related factor 2 (Mus musculus); assay: Activation of Nrf2 in mouse Hepa1c1c7 cells assessed as increase in NQO1 activity at 1.9 uM; type: cell-based; conditions: filed as activator
[15] = target: T1, Nuclear factor erythroid 2-related factor 2 (Mus musculus); assay: Activation of Nrf2 in mouse Hepa1c1c7 cells assessed as increase in NQO1 activity at 3.75 uM; type: cell-based; conditions: filed as activator
[16] = target: T1, Nuclear factor erythroid 2-related factor 2 (Mus musculus); assay: Activation of Nrf2 in mouse Hepa1c1c7 cells assessed as increase in NQO1 activity at 15 uM; type: cell-based; conditions: filed as activator
[17] = target: T1, Nuclear factor erythroid 2-related factor 2 (Mus musculus); assay: Activation of Nrf2 in mouse Hepa1c1c7 cells assessed as increase in NQO1 activity at 30 uM; type: cell-based; conditions: filed as activator
[18] = target: T1, Nuclear factor erythroid 2-related factor 2 (Mus musculus); assay: Activation of Nrf2 in mouse Hepa1c1c7 cells assessed as increase in NQO1 activity at 3.125 uM; type: cell-based; conditions: filed as activator
[19] = target: T1, Nuclear factor erythroid 2-related factor 2 (Mus musculus); assay: Activation of Nrf2 in mouse Hepa1c1c7 cells assessed as increase in NQO1 activity at 25 uM; type: cell-based; conditions: filed as activator
[20] = target: T1, Nuclear factor erythroid 2-related factor 2 (Mus musculus); assay: Activation of Nrf2 in mouse Hepa1c1c7 cells assessed as increase in NQO1 activity at 1.6 uM; type: cell-based; conditions: filed as activator
[21] = target: T1, Nuclear factor erythroid 2-related factor 2 (Mus musculus); assay: Activation of Nrf2 in mouse Hepa1c1c7 cells assessed as increase in NQO1 activity at 6.25 uM; type: cell-based; conditions: filed as activator
[22] = target: T1, Nuclear factor erythroid 2-related factor 2 (Mus musculus); assay: Activation of Nrf2 in mouse Hepa1c1c7 cells assessed as increase in NQO1 activity at 0.4 uM; type: cell-based; conditions: filed as activator
[23] = target: T1, Nuclear factor erythroid 2-related factor 2 (Mus musculus); assay: Activation of Nrf2 in mouse Hepa1c1c7 cells assessed as increase in NQO1 activity at 0.8 uM; type: cell-based; conditions: filed as activator
[24] = target: T1, Nuclear factor erythroid 2-related factor 2 (Mus musculus); assay: Activation of Nrf2 in mouse Hepa1c1c7 cells assessed as increase in NQO1 activity at 12.5 uM; type: cell-based; conditions: filed as activator
[25] = target: T1, Nuclear factor erythroid 2-related factor 2 (Mus musculus); assay: Activation of Nrf2 in mouse Hepa1c1c7 cells assessed as increase in NQO1 activity at 50 uM; type: cell-based; conditions: filed as activator

Row | Structure (SMILES) | Activity [1] | Activity [2] | Activity [3] | Activity [4] | IC50 [5] | Activity [6] | Activity [7] | Activity [8] | Activity [9] | other results
1 | NS(=O)(=O)c1ccc(-n2c(SCC(=O)Nc3cc(Cl)c(Cl)cc3Cl)nc3c(I)cc(I)cc3c2=O)cc1 | 1.08 | 1.1 | 1.05 | 1.07 | 59.8 µM | 1.3 | 1.03 | 1.25 | 1.01 | –
2 | NS(=O)(=O)c1ccc(-n2c(SCC(=O)Nc3ccc(I)cc3)nc3c(I)cc(I)cc3c2=O)cc1 | 1.05 | 1.04 | 1.03 | 1.04 | 55.6 µM | 1.12 | 1.02 | 1.07 | 1.02 | –
3 | NS(=O)(=O)c1ccc(-n2c(SCC(=O)Nc3ccccc3F)nc3c(I)cc(I)cc3c2=O)cc1 | – | – | – | – | 98.9 µM | – | – | – | – | Activity [10]: 1.05; Activity [11]: 1.23; Activity [12]: 1.06; Activity [13]: 1.11; Activity [14]: 1.12; Activity [15]: 1.13; Activity [16]: 1.8
4 | NS(=O)(=O)c1ccc(-n2c(SCC(=O)Nc3cccnc3)nc3c(I)cc(I)cc3c2=O)cc1 | – | – | – | – | 165 µM | – | – | – | – | Activity [10]: 1; Activity [11]: 1.07; Activity [12]: 0.99; Activity [17]: 1.35; Activity [13]: 1; Activity [14]: 0.99; Activity [15]: 1.03; Activity [16]: 1.19
5 | NS(=O)(=O)c1ccc(-n2c(SCC(=O)Nc3ccncc3)nc3c(I)cc(I)cc3c2=O)cc1 | – | – | – | – | 112 µM | – | – | – | – | Activity [18]: 1.06; Activity [19]: 1.65; Activity [20]: 1.02; Activity [21]: 1.15; Activity [22]: 1.04; Activity [23]: 1; Activity [24]: 1.31; Activity [25]: 1.89
6 | NS(=O)(=O)c1ccc(-n2c(SCC(=O)Nc3ccccn3)nc3c(I)cc(I)cc3c2=O)cc1 | 0.51 | – | 0.83 | 0.76 | 85 µM | – | 0.94 | – | 0.96 | –
7 | NS(=O)(=O)c1ccc(-n2c(SCC(=O)Nc3ccc(Cl)cc3)nc3c(I)cc(I)cc3c2=O)cc1 | 1.19 | 1.26 | 1.03 | 1.04 | 56.5 µM | 1.26 | 1.04 | 1.26 | 1.06 | –
8 | NS(=O)(=O)c1ccc(-n2c(SCC(=O)Nc3ccc(Cl)cn3)nc3c(I)cc(I)cc3c2=O)cc1 | – | – | – | – | 30.5 µM | – | – | – | – | Activity [18]: 1.09; Activity [20]: 0.98; Activity [21]: 1.5; Activity [22]: 0.94; Activity [23]: 0.99; Activity [24]: 1.7
